Measured values from ChEMBL document CHEMBL1201862, “PubChem BioAssay data set” (2004).
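Exposure lasted 48 hours, with cells grown in 96-well plates and compounds tested at five concentrations. At the GI50, growth is halved.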 Calls of active or inactive are those of the source. No stated cut-off is given here; in the data, active = GI50 up to about 1.1 µM and inactive = higher.

Legend:
Experiment in all cases: NCI anticancer screen, dose series, 48 h
A498 = test system: A498
ACHN = test system: ACHN
DU-145 = test system: DU-145
HCT-15 = test system: HCT-15
HT-29 = test system: HT-29
Hs-578T = test system: Hs-578T
K562 = test system: K562
LOX IMVI = test system: LOX IMVI
MCF7 = test system: MCF7
MDA-MB-231 = test system: MDA-MB-231
Malme-3M = test system: Malme-3M
NCI-H522 = test system: NCI-H522
OVCAR-5 = test system: OVCAR-5
OVCAR-8 = test system: OVCAR-8
PC-3 = test system: PC-3
RPMI-8226 = test system: RPMI-8226
SF-268 = test system: SF-268
SNB-75 = test system: SNB-75
UACC-257 = test system: UACC-257
UACC-62 = test system: UACC-62

Row | SMILES | GI50 (A498) | GI50 (ACHN) | GI50 (DU-145) | GI50 (HCT-15) [µM] | GI50 (HT-29) | GI50 (Hs-578T) | GI50 (K562) | GI50 (LOX IMVI) | GI50 (MCF7) | GI50 (MDA-MB-231) | GI50 (Malme-3M) | GI50 (NCI-H522) | GI50 (OVCAR-5) | GI50 (OVCAR-8) | GI50 (PC-3) | GI50 (RPMI-8226) | GI50 (SF-268) | GI50 (SNB-75) | GI50 (UACC-257) | GI50 (UACC-62)
1 | O=C1NC(=O)C(c2c[nH]c3ccccc23)=C1c1cn(C(c2ccccc2)(c2ccccc2)c2ccccc2)cn1 | 5.32 µM (inactive) | 4.8 µM (inactive) | 19.6 µM (inactive) | 3.66 | 4.06 µM (inactive) | 20.8 µM (inactive) | 4.2 µM (inactive) | 6.95 µM (inactive) | 3.05 µM (inactive) | 12.8 µM (inactive) | 10.4 µM (inactive) | 8.75 µM (inactive) | 8.73 µM (inactive) | 5.33 µM (inactive) | 2.58 µM (inactive) | 3.13 µM (inactive) | 11.7 µM (inactive) | 10.2 µM (inactive) | 11.2 µM (inactive) | 12.5 µM (inactive)
2 | COc1cc(/C=C2\N=C(c3ccccc3)N(c3nc4c(OC)ccc(OC)c4s3)C2=O)ccc1O | > 100 µM (inactive) | 59.2 µM (inactive) | 28.8 µM (inactive) | 70.1 | > 100 µM (inactive) | 48.8 µM (inactive) | 18.1 µM (inactive) | 24 µM (inactive) | 17.3 µM (inactive) | 45.7 µM (inactive) | 85.7 µM (inactive) | 31.1 µM (inactive) | > 100 µM (inactive) | 30.8 µM (inactive) | 32.4 µM (inactive) | 23.1 µM (inactive) | 39.1 µM (inactive) | 8.34 µM (inactive) | 38 µM (inactive) | 33 µM (inactive)
3 | CC(=O)OC1C(C)OC(OC2C[C@](O)(C(C)=O)Cc3c(O)c4c(c(O)c32)C(=O)c2ccccc2C4=O)C(F)C1OC(C)=O (stereo not given in full) | 0.791 µM (active) | 0.114 µM (active) | 0.23 µM (active) | 0.358 | 1.42 µM (inactive) | 0.476 µM (active) | 1.63 µM (inactive) | 0.156 µM (active) | 0.0474 µM (active) | 1.06 µM (active) | 1.14 µM (inactive) | 0.61 µM (active) | 0.916 µM (active) | 0.543 µM (active) | 0.971 µM (active) | 0.175 µM (active) | 0.541 µM (active) | 0.417 µM (active) | 1.8 µM (inactive) | 0.387 µM (active)
4 | CN1C(=O)C(O)CC1c1cccc(C(F)(F)F)c1 (stereo not given) | > 100 µM (inactive) | > 100 µM (inactive) | > 100 µM (inactive) | > 100 | > 100 µM (inactive) | > 100 µM (inactive) | > 100 µM (inactive) | > 100 µM (inactive) | > 100 µM (inactive) | > 100 µM (inactive) | > 100 µM (inactive) | > 100 µM (inactive) | > 100 µM (inactive) | > 100 µM (inactive) | > 100 µM (inactive) | > 100 µM (inactive) | > 100 µM (inactive) | > 100 µM (inactive) | > 100 µM (inactive) | > 100 µM (inactive)
5 | O=C(CC(=O)N1N=C(c2ccccc2)C(/N=N/c2ccc(S(=O)(=O)CCOS(=O)(=O)O)cc2)C1=O)Nc1ccc(Cl)cc1 (stereo not given) | > 100 µM (inactive) | 9.82 µM (inactive) | > 100 µM (inactive) | 8.61 | > 100 µM (inactive) | 20.6 µM (inactive) | 7.5 µM (inactive) | 84.1 µM (inactive) | > 100 µM (inactive) | 91.6 µM (inactive) | > 100 µM (inactive) | 30.9 µM (inactive) | > 100 µM (inactive) | > 100 µM (inactive) | > 100 µM (inactive) | > 100 µM (inactive) | > 100 µM (inactive) | > 100 µM (inactive) | > 100 µM (inactive) | > 100 µM (inactive)
6 | CCCCCCCCCCCCCCCCCCOCC(COCCOCC[N+]1(CCCCCC(=O)[O-])CCCC1)Oc1ncccn1 (stereo not given) | 5.94 µM (inactive) | 10 µM (inactive) | 13.3 µM (inactive) | 12.8 | 1.73 µM (inactive) | 13.6 µM (inactive) | 2.19 µM (inactive) | 2.88 µM (inactive) | 4.45 µM (inactive) | 8.22 µM (inactive) | 16.7 µM (inactive) | 1.34 µM (inactive) | 2.99 µM (inactive) | 2.56 µM (inactive) | 0.643 µM (active) | 1.04 µM (active) | 3.51 µM (inactive) | 2.61 µM (inactive) | 8.02 µM (inactive) | 3.35 µM (inactive)
